This note sets out measurements from DBAASP.

Experiment in all cases: ≥ marks a high value that may be exact or a test limit, other limits are often not marked, values filed in µg/mL are converted to µM
For assay [1], the system named is Escherichia coli ATCC 25726.
In assay [2] the test system is Staphylococcus aureus ATCC 25923.
Assay [3] concerns Bacillus cereus.
In assay [4] the test system is Escherichia coli.
Assay [5] concerns Staphylococcus aureus.
In assay [6] the test system is Bacillus subtilis ATCC 23857.
Assay [7] deals with Escherichia coli ATCC 25922.
Assay [8] concerns Klebsiella pneumoniae ATCC 700603.
In assay [9] the test system is Pseudomonas aeruginosa ATCC 9027.
In assay [10] the test system is Acinetobacter baumannii ATCC 19606.
The subject of assay [11] is Enterococcus faecalis ATCC 29212.
Assay [12] deals with Pseudomonas aeruginosa ATCC 27853.
Assay [13] concerns Staphylococcus epidermidis ATCC 12228.
Assay [14] deals with Candida albicans ATCC 90028.
Assay [15] has as its system Staphylococcus aureus ATCC 29213.

Converted amounts (≈) assume the structure as drawn.

Take `CC[C@H](C)[C@H](NC(=O)[C@H](CCCCN)NC(=O)[C@H](CO)NC(=O)[C@H](C)NC(=O)[C@H](Cc1c[nH]c2ccccc12)NC(=O)CN)C(=O)NCC(=O)N[C@@H](CCC(N)=O)C(=O)N[C@@H](C)C(=O)N[C@@H](CC(C)C)C(=O)NCC(=O)N[C@@H](CCCCN)C(=O)N[C@H](C(=O)N[C@@H](C)C(=O)N[C@@H](CCCCN)C(=O)N[C@H](C(=O)NCC(=O)N[C@@H](CC(C)C)C(=O)N[C@@H](CCC(N)=O)C(=O)N[C@@H](CCC(N)=O)C(=O)N[C@@H](Cc1ccccc1)C(=O)N[C@H](C(=O)N[C@@H](CCC(N)=O)C(=O)N1CCC[C@H]1C(=O)N[C@@H](CCCCN)C(=O)O)[C@@H](C)CC)C(C)C)C(C)C` [GWASKIGQALGKVAKVGLQQFIQPK]: the MIC (in general, the least concentration at which growth counts as inhibited) in assay [1] is 12.5 µM (≈ 33.2 µg/mL); in [2], more than 100 µM.
On to `CC[C@H](C)[C@H](NC(=O)[C@H](CC(C)C)NC(=O)[C@H](CO)NC(=O)[C@@H]1CCCN1C(=O)[C@@H](NC(=O)[C@@H](NC(=O)[C@H](CCCCN)NC(=O)[C@H](CO)NC(=O)[C@H](C)NC(=O)[C@@H](NC(=O)[C@H](CO)NC(=O)CNC(=O)[C@@H](NC(=O)[C@H](C)NC(=O)[C@@H](N)CO)C(C)C)C(C)C)C(C)C)C(C)C)C(=O)N[C@@H](CO)C(=O)N[C@@H](CCCCN)C(=O)N[C@H](C(=O)N[C@H](C(=O)N[C@@H](CCCCN)C(=O)O)[C@@H](C)O)C(C)C` [SAVGSVASKVVPSLISKVTK], for which the MIC in assay [3] is not below 131 µM; in assay [4] it was more than 131 µM.
`CC(C)C[C@H](NC(=O)[C@H](CCCCN)NC(=O)[C@H](Cc1ccccc1)NC(=O)[C@@H](NC(=O)[C@@H](NC(=O)CNC(=O)[C@H](CC(C)C)NC(=O)[C@@H](N)Cc1ccccc1)C(C)C)C(C)C)C(=O)N[C@@H](C)C(=O)N[C@@H](CO)C(=O)N[C@@H](CCCCN)C(=O)N[C@H](C(=O)N[C@@H](Cc1ccccc1)C(=O)N1CCC[C@H]1C(=O)N[C@@H](C)C(=O)N[C@H](C(=O)N[C@@H](Cc1ccccc1)C(=O)N[C@@H](CCCCN)C(=O)N[C@@H](CCCCN)C(=O)N[C@H](C(=O)O)C(C)C)C(C)C)C(C)C` [FLGVVFKLASKVFPAVFKKV]: the minimum inhibitory concentration (MIC) in [3] amounted to 7.19 µM (≈ 16 µg/mL); in assay [4], 28.8 µM (≈ 64 µg/mL); in assay [5] it was 1.8 µM (≈ 4 µg/mL).
With `CC[C@H](C)[C@H](NC(=O)[C@H](C)NC(=O)[C@H](CCCCN)NC(=O)[C@H](C)NC(=O)[C@@H](NC(=O)[C@H](C)NC(=O)[C@H](CC(C)C)NC(=O)[C@H](CC(C)C)NC(=O)[C@H](C)NC(=O)[C@H](CCCCN)NC(=O)[C@H](CC(C)C)NC(=O)[C@H](CC(N)=O)NC(=O)[C@@H](N)CC(C)C)C(C)C)C(=O)N[C@@H](CC(C)C)C(N)=O` [LNLKALLAVAKAIL], the MIC was 8 µM (≈ 11.6 µg/mL) in [6]; 8 µM (≈ 11.6 µg/mL) in assay [7]; 16 µM (≈ 23.2 µg/mL) in [8]; 16 µM (≈ 23.2 µg/mL) in assay [9]; 4 µM (≈ 5.8 µg/mL) in assay [2].
On to `CC(C)C[C@H](NC(=O)[C@H](CC(C)C)NC(=O)[C@@H](NC(=O)[C@H](CCCCN)NC(=O)[C@H](Cc1ccccc1)NC(=O)[C@H](CCCN=C(N)N)NC(=O)[C@H](CCCCN)NC(=O)[C@H](CC(C)C)NC(=O)[C@H](CC(C)C)NC(=O)CN)[C@@H](C)O)C(N)=O` [GLLKRFKTLL], for which the MIC in assay [10] is 256 µM (≈ 304 µg/mL); in [6], not below 32 µM; in assay [11] it was 256 µM (≈ 304 µg/mL); in assay [7] it was 64 µM (≈ 76 µg/mL); in [8], 128 µM (≈ 152 µg/mL); in [12] it was 16 µM (≈ 19 µg/mL). In addition, the MIC in assay [2] is 128 µM (≈ 152 µg/mL); in [13], 16 µM (≈ 19 µg/mL).
With `CC[C@H](C)[C@H](NC(=O)[C@@H](NC(=O)[C@H](CO)NC(=O)[C@H](CCCCN)NC(=O)[C@H](C)NC(=O)[C@@H](NC(=O)[C@H](CCCCN)NC(=O)[C@@H](NC(=O)[C@@H](N)CO)C(C)C)C(C)C)C(C)C)C(=O)N1CCC[C@H]1C(=O)N[C@@H](CO)C(=O)N[C@@H](C)C(=O)N[C@H](C(=O)N[C@@H](Cc1ccccc1)C(=O)N[C@@H](C)C(=O)NCC(=O)NCC(=O)N[C@@H](CCCCN)C(=O)N[C@H](C(=O)N[C@@H](Cc1ccccc1)C(=O)O)C(C)C)C(C)C` [SVKVAKSVIPSAVFAGGKVF], the MIC is not below 129 µM in assay [3] and more than 129 µM in [4].
In the case of `CC[C@H](C)[C@H](NC(=O)[C@H](CCCCN)NC(=O)CNC(=O)[C@H](C)NC(=O)[C@@H](NC(=O)[C@H](CO)NC(=O)CNC(=O)[C@H](C)NC(=O)[C@H](CCCCN)NC(=O)[C@H](CO)NC(=O)[C@H](C)NC(=O)[C@H](CCSC)NC(=O)CN)C(C)C)C(=O)N[C@@H](C)C(=O)N[C@@H](CCCCN)C(=O)N[C@@H](Cc1ccccc1)C(=O)N[C@@H](C)C(=O)N[C@@H](CC(C)C)C(=O)NCC(=O)N[C@@H](C)C(=O)N[C@@H](CC(C)C)C(N)=O` [GMASKAGSVAGKIAKFALGAL], the MIC was not below 160 µM in assay [14], not below 80 µM in assay [1] and 80 µM (≈ 156 µg/mL) in assay [2].
Take `CC[C@H](C)[C@H](N)C(=O)N[C@@H](CC(=O)O)C(=O)N[C@@H](Cc1c[nH]c2ccccc12)C(=O)N[C@@H](CCCCN)C(=O)N[C@@H](CCCCN)C(=O)N[C@@H](CC(C)C)C(=O)N[C@@H](CC(C)C)C(=O)N1CCC[C@H]1C(=O)N[C@@H](C)C(=O)N[C@@H](C)C(=O)N[C@@H](CCCCN)C(=O)N[C@@H](CCC(N)=O)C(=O)N[C@H](C(=O)N[C@@H](CC(C)C)C(N)=O)[C@@H](C)CC` [IDWKKLLPAAKQIL]: the MIC was not below 32 µM in assay [6], 128 µM (≈ 209 µg/mL) in assay [7], 512 µM (≈ 838 µg/mL) in assay [15] and 256 µM (≈ 419 µg/mL) in [13].
In the case of `CC[C@H](C)[C@H](NC(=O)CNC(=O)[C@@H](NC(=O)[C@H](CCSC)NC(=O)[C@H](C)NC(=O)[C@H](CC(N)=O)NC(=O)[C@H](CCCCN)NC(=O)[C@H](Cc1ccccc1)NC(=O)[C@H](CO)NC(=O)[C@H](CC(=O)O)NC(=O)[C@H](CC(C)C)NC(=O)[C@H](CC(C)C)NC(=O)CN)[C@@H](C)CC)C(=O)N[C@@H](C)C(=O)N[C@@H](CCCCN)C(=O)N[C@@H](CO)C(=O)N[C@@H](C)C(=O)NCC(=O)N[C@@H](CCCCN)C(=O)N[C@H](C(=O)N[C@@H](C)C(=O)N[C@@H](CC(C)C)C(=O)N[C@@H](CC(N)=O)C(=O)N[C@@H](CCCCN)C(=O)N[C@H](C(=O)N[C@@H](C)C(=O)N[C@H]1CSSC[C@@H](C(=O)O)NC(=O)[C@H]([C@@H](C)O)NC(=O)[C@H](CCCCN)NC(=O)[C@H](CC(=O)O)NC(=O)[C@H]([C@@H](C)CC)NC(=O)[C@H](CCCCN)NC1=O)[C@@H](C)CC)[C@@H](C)O` [GLLDSFKNAMIGIAKSAGKTALNKIACKIDKTC], the figures for the MIC in assay [1] and in assay [2] were 18.2 µM (≈ 62.5 µg/mL) and more than 73 µM, respectively.
On the same counts, the results for `CC[C@H](C)[C@H](N)C(=O)N[C@H](C(=O)N[C@H](C(=O)N1CCC[C@H]1C(=O)N1CCC[C@H]1C(=O)N[C@H](C(=O)N[C@H](C(=O)N[C@@H](CCCCN)C(=O)N[C@@H](CC(=O)O)C(=O)N[C@H](C(=O)N[C@@H](CC(C)C)C(=O)N[C@@H](CCCCN)C(=O)N[C@@H](CCCCN)C(=O)N[C@@H](Cc1ccccc1)C(=O)N[C@@H](Cc1ccccc1)C(=O)N[C@@H](CCCCN)C(=O)NCC(=O)NCC(=O)N[C@H](C(=O)N[C@@H](C)C(=O)NCC(=O)N[C@H](C(=O)N[C@@H](CCSC)C(=O)NCC(=O)N[C@@H](CCCCN)C(=O)N[C@@H](CO)C(=O)N[C@@H](CCC(N)=O)C(=O)O)C(C)C)[C@@H](C)CC)[C@@H](C)O)C(C)C)[C@@H](C)CC)[C@@H](C)CC)[C@@H](C)O` [ITIPPIVKDTLKKFFKGGIAGVMGKSQ] are not below 80 µM and 40 µM (≈ 115 µg/mL).
On the same counts, the results for `CC[C@H](C)[C@H](NC(=O)[C@H](C)NC(=O)[C@@H](NC(=O)[C@H](CCCCN)NC(=O)[C@H](C)NC(=O)[C@H](CC(C)C)NC(=O)[C@H](CCCCN)NC(=O)CNC(=O)[C@H](CC(C)C)NC(=O)[C@@H](NC(=O)[C@H](CO)NC(=O)CNC(=O)[C@H](C)NC(=O)[C@H](CCCCN)NC(=O)[C@H](CO)NC(=O)[C@H](C)NC(=O)[C@H](CCSC)NC(=O)CN)C(C)C)C(C)C)C(=O)NCC(=O)N[C@@H](C)C(=O)N[C@@H](CC(C)C)C(N)=O` [GMASKAGSVLGKLAKVAIGAL] are 25 µM (≈ 48.5 µg/mL) and 100 µM (≈ 194 µg/mL).
As to `CC[C@H](C)[C@H](NC(=O)[C@H](CCCCN)NC(=O)[C@@H](NC(=O)[C@@H](NC(=O)[C@@H](NC(=O)[C@H](CCC(N)=O)NC(=O)[C@H](C)NC(=O)CNC(=O)[C@H](CO)NC(=O)[C@H](CCCCN)NC(=O)[C@H](CCC(N)=O)NC(=O)[C@H](C)NC(=O)[C@H](CCCCN)NC(=O)[C@H](CCCCN)NC(=O)[C@H](C)N)[C@@H](C)O)[C@@H](C)CC)C(C)C)C(=O)N[C@@H](Cc1ccccc1)C(=O)N[C@@H](C)C(=O)N[C@@H](CCCCN)C(=O)NCC(=O)N[C@@H](CCSC)C(=O)O` [AKKAQKSGAQTIVKIFAKGM], the MIC in assay [3] was not below 122 µM; in [4], more than 122 µM.
